± gives the expanded uncertainty stated by the source.
Details: 101 kPa, Liquid, Sing-around technique in a fixed-path interferometer

- speed of sound (313.15 K): 1529.2 ± 0.77 m/s
- speed of sound (318.15 K): 1536.8 ± 0.78 m/s
SMILES: O [water]

— the NIST ThermoML archive (doi:10.1021/acs.jced.5b00317)
